This is an account of results in PubChem BioAssay (NCI).

Among the test systems are HCT-116 colon; A498 renal; IGROV1 ovarian; K-562 leukemia; NCI-H226 lung; A549 NSCLC; UACC-62 melanoma; SK-MEL-2 melanoma; HS 578T breast.
Holding throughout (test): NCI anticancer screen, dose series, 48 h

Where “and” joins values, the source holds several entries; their conditions need not be identical. Equal entries are not always repeated.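 These data come from cells grown in 96-well plates and exposed to compound for 48 hours at five concentrations. The concentration for 50% growth inhibition is given as GI50. At the TGI there is no net growth.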

On to `C[N+](C)(C)C1CC([N+](C)(C)C)C2c3ccccc3C21` (stereo not given), for which the TGI in the test with HCT-116 colon, with A498 renal, in the test on IGROV1 ovarian, with K-562 leukemia, in the test with NCI-H226 lung and in the test with A549 NSCLC was above 100 µM throughout. For the same compound, in the test on UACC-62 melanoma, the TGI was above 100 µM.

In the case of `Cc1[nH]c2ccccc2c1C1=NO/C(=N\O)C(c2c(C)[nH]c3ccccc23)C1` (stereo not given), the TGI in the test with SK-MEL-2 melanoma is above 100 µM; with HCT-116 colon, above 78.5 µM; in the test with A498 renal, above 100 µM; with IGROV1 ovarian it was above 100 µM; in the test on K-562 leukemia, above 100 µM; with NCI-H226 lung, above 100 µM. Moreover, the TGI in the test with A549 NSCLC was above 100 µM; in the test on UACC-62 melanoma, 62.7 µM.

Consider `CCOC(=O)c1c(-c2ccc(OC)c(O)c2)c(C#N)c(=S)n(C2OC(COC(C)=O)C(OC(C)=O)C(OC(C)=O)C2OC(C)=O)c1-c1ccccc1` (stereo not given), for which the GI50 with HCT-116 colon was 35.7 µM and > 100 µM; with HS 578T breast, 38.8 µM and > 100 µM; in the test with IGROV1 ovarian it was 23.6 µM and > 100 µM; in the test with K-562 leukemia, 43.1 µM and > 100 µM; in the test with UACC-62 melanoma, 17.1 µM and > 100 µM. Moreover, the TGI was above 100 µM with HCT-116 colon; above 100 µM in the test on A498 renal; above 100 µM in the test on HS 578T breast; 47.7 µM and > 100 µM in the test with IGROV1 ovarian; above 100 µM in the test with K-562 leukemia; above 100 µM in the test on NCI-H226 lung. The TGI with A549 NSCLC was above 100 µM; with UACC-62 melanoma it was 34.1 µM and > 100 µM.

In the case of `CN=C1CN=C(OP(=O)(N2CCOCC2)N2CCOCC2)c2cc(Cl)ccc2N1`, the TGI in the test on SK-MEL-2 melanoma, in the test on HCT-116 colon, with A498 renal, in the test with K-562 leukemia, with NCI-H226 lung and in the test with A549 NSCLC was above 100 µM each time. For the same compound, the TGI in the test on UACC-62 melanoma is above 100 µM.

Regarding `Brc1ccc(C=NC23CC4CC(CC(C4)C2)C3)cc1`, the TGI in the test with SK-MEL-2 melanoma, with HCT-116 colon, in the test on A498 renal, in the test with IGROV1 ovarian, with K-562 leukemia and with NCI-H226 lung was above 100 µM in each case. Moreover, the TGI in the test with A549 NSCLC and with UACC-62 melanoma was above 100 µM each time.

Take `CC(=O)OC1=C2CC[C@@H]3C(CC[C@@]4(C)C3CC[C@@H]4OC(C)=O)[C@@]2(C)CC(C#N)C1=O` (stereo not given in full): the TGI was 59.4 µM with SK-MEL-2 melanoma; above 100 µM with HCT-116 colon; 9.59 µM in the test on A498 renal; 61.4 µM in the test on IGROV1 ovarian; 88.1 µM in the test on K-562 leukemia; above 100 µM in the test on NCI-H226 lung. Further, the TGI in the test with A549 NSCLC is above 100 µM; in the test on UACC-62 melanoma, 38.9 µM.

On to `CCC[CH2][Sn]1([CH2]CCC)[O]CC[S]1`, for which the GI50 was 0.298 µM with SK-MEL-2 melanoma; 1.16 µM in the test on HCT-116 colon; 1.55 µM in the test with IGROV1 ovarian; 0.15 µM in the test on K-562 leukemia; 1.02 µM in the test with NCI-H226 lung; 2.21 µM with A549 NSCLC. Also, the GI50 with UACC-62 melanoma was 0.392 µM. Moreover, the TGI turned out to be 1.01 µM in the test on SK-MEL-2 melanoma; 2.9 µM in the test on HCT-116 colon; 4.64 µM with IGROV1 ovarian; 1.28 µM in the test with K-562 leukemia; 2.36 µM in the test on NCI-H226 lung; 6.03 µM with A549 NSCLC. The compound also showed a TGI in the test with UACC-62 melanoma of 1.56 µM.

For the compound `C/C(=C\C(C[C@](C)(O)C(O)CCC#C[Si](C)(C)C)S(=O)(=O)c1ccccc1)CC/C=C/CO[Si](C)(C)C(C)(C)C` (stereo not given in full), the TGI in the test on SK-MEL-2 melanoma was found to be 44.1 µM; with HCT-116 colon it was 26.6 µM; with A498 renal, 31.9 µM; with IGROV1 ovarian, 41 µM; with K-562 leukemia, 29 µM; with NCI-H226 lung, 38.8 µM. In addition, the TGI turned out to be 30.2 µM with A549 NSCLC and 33.9 µM in the test with UACC-62 melanoma.

In the case of `[Co].[O-]c1cccnc1C=Nc1ccccc1.[OH3+]`, the GI50 with SK-MEL-2 melanoma was above 100 µM; with HCT-116 colon, above 100 µM; in the test with A498 renal it was above 100 µM; with IGROV1 ovarian, above 100 µM; in the test with K-562 leukemia, 45.8 µM; in the test with A549 NSCLC, above 100 µM. For the same compound, the GI50 with UACC-62 melanoma was 86.1 µM. Also, the TGI with SK-MEL-2 melanoma, in the test on HCT-116 colon, with A498 renal, in the test on IGROV1 ovarian, in the test with K-562 leukemia and with A549 NSCLC was above 100 µM each time. In addition, the TGI with UACC-62 melanoma is above 100 µM.

As to `CC[O-].CC[O-].O=C([CH-]C(=O)c1ccccc1)CCCCCCC(=O)[CH-]C(=O)c1ccccc1.[Ti+4]`, the GI50 in the test with SK-MEL-2 melanoma, with A498 renal, in the test with IGROV1 ovarian, in the test on K-562 leukemia, in the test with A549 NSCLC and with UACC-62 melanoma was above 100 µM throughout. Moreover, the TGI in the test on SK-MEL-2 melanoma, with A498 renal, in the test on IGROV1 ovarian, in the test on K-562 leukemia, in the test with A549 NSCLC and in the test on UACC-62 melanoma was above 100 µM throughout.

In the case of `COc1ccccc1NC(=O)C1=C(C)NC(C)=C(C(=O)Nc2ccccc2OC)C1c1ccccc1Cl`, the TGI in the test on SK-MEL-2 melanoma, in the test with HCT-116 colon, with A498 renal, with IGROV1 ovarian, with K-562 leukemia and in the test on NCI-H226 lung was above 100 µM throughout. Moreover, the TGI with A549 NSCLC and in the test with UACC-62 melanoma was above 100 µM in each case.

For `O=C1NC2(CCCC2)C2CCCCC12O` (stereo not given), the TGI in the test on SK-MEL-2 melanoma, in the test with HCT-116 colon, in the test with A498 renal, in the test with IGROV1 ovarian, with K-562 leukemia and with A549 NSCLC was above 100 µM each time. The compound also showed a TGI in the test with UACC-62 melanoma above 100 µM.

As to `C1C[OH+]CCNCC[OH+]CC[OH+]CCN1.N.[Cl-].[Pt+4]`, the GI50 with SK-MEL-2 melanoma is 47.2 µM; with HCT-116 colon it was 32.9 µM; in the test on A498 renal it was 64.6 µM; in the test with IGROV1 ovarian, 49.6 µM; with K-562 leukemia it was 41.5 µM; with NCI-H226 lung, 38.2 µM. Also, the GI50 with A549 NSCLC is 51.3 µM; with UACC-62 melanoma, 31.6 µM. Also, the TGI in the test on SK-MEL-2 melanoma, with HCT-116 colon, in the test on A498 renal, with IGROV1 ovarian, in the test on K-562 leukemia and with NCI-H226 lung was above 100 µM in each case. Moreover, the TGI with A549 NSCLC and with UACC-62 melanoma was above 100 µM in each case.
